Structures are written as SMILES. Where two headings read alike, the source gives them in different places.

The nature of data set [1]: Plasma levels after oral dosing in the rat pain models. In kind it is in vivo. Conditions: for concentration at 2 h: Sprague-Dawley, p.o., AITC model.
In data set [2] the target is T1, Human TRPA1 expressing CHO cells (Homo sapiens, UniProt O75762).
T1 construct: expressed in transfected cells; host or cells: CHO cells (under G-418 selection)
Put plainly: 45Calcium uptake assay: inhibition of AITC induced cellular uptake of radioactive calcium. In kind it is cell-based. Conditions: AITC 30 μM, human TRPA1 CHO cells. The method in brief:
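CHO cells expressing human TRPA1 were preincubated 10 min with compound (0.5% DMSO final), then stimulated 3 min with 30 μM AITC plus 5 μCi/ml 45Ca2+. Lysate radioactivity gave % of maximal uninhibited response; IC50 by nonlinear regression.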

The test system of data set [3] is male SD rats. Put plainly: Formalin-induced nocifensive behaviour. In kind it is in vivo, rat. Particulars: 10 mg/kg, p.o., given 1.5 h (compound 10) or 3 h (compound 37) prior to formalin (2.5%). An excerpt:
(§1) The illustrative examples of the present invention are screened for ‘in vivo’ TRPA1 based efficacy in various models of pain/hyperalgesia according to modified procedures described in (a) McNamara C R et al., PNASU (2007), 104, 13525-13530 (b) Eid S R et al., Molecular Pain, (2008), 4, 48 (c) Bennett G J and Xie Y K, Pain (1988), 33, 87-107. The screening of the compounds can also be carried out by some other methods and procedures known to persons skilled in the art.
Formalin-Induced Nocifensive Behaviour
Formalin also induces nocifensive behaviour (paw flinching and licking responses) in rats and mice. TRPA1-deficient mice show marked attenuation of characteristic paw flinching and licking responses as a result of intraplantar injection of formalin in a characteristic early and late phase manner. This model also serves as a selective TRPA1 based mechanistic model.
Compound 10 and compound 37 inhibited the formalin-induced nocifensive licking behaviour in both early & late phases in male SD rats.

Data set [4] deals with male SD rats. The data set is described as follows: Chronic Constriction Injury (CCI)-induced neuropathic pain (Bennett's model). In kind it is in vivo, rat.
Text: as §1
Chronic Constriction Injury (CCI)-Induced Neuropathic Pain (Bennett's Model)
Chronic constriction injury (CCI) of sciatic nerve in rats and mice induces inflammatory mechanical hyperalgesia in this Bennet's neuropathic pain model. Rats were anesthetized using ketamine/xylazine (40/5 mg/kg, i.p.) and the left sciatic nerve was exposed at mid thigh level through a small incision. Four loose ligatures of 4-0 chromic cat gut (Ethicon-Johnson & Johnson) at 1 mm space were placed around the sciatic nerve […] of common sciatic nerve. After 6-7 days, mechanical hyperalgesia was assessed by measuring hind paw withdrawal thresholds to an increasing pressure (g) stimulus, using the Randall-Sellitto analgesymeter (Ugo Basile, Italy), fitted with a wedge-shaped probe.

In data set [5] the test system is rats. Put plainly: FCA (Freund's Complete Adjuvant)-induced inflammatory mechanical hyperalgesia. In kind it is in vivo, rat.
Text: as §1
FCA (Freund's Complete Adjuvant)-Induced Inflammatory Hyperalgesia
Freund's Complete Adjuvant (FCA), containing heat killed, dried Mycobaterium tuberculosis (1 mg/ml) emulsified in mineral oil and mannide monooleate, when injected (30 μl) into the plantar region of the paw of mice and rats induces an inflammatory hyperalgesia. Mechanical hyperalgesia (24 h after injection) was assessed by measuring hind paw withdrawal thresholds to an increasing pressure (g) stimulus, using the Randall-Sellitto analgesymeter (37215, Ugo Basile, Italy) fitted with a wedge-shaped probe.

T1 sequence (O75762 whole entry): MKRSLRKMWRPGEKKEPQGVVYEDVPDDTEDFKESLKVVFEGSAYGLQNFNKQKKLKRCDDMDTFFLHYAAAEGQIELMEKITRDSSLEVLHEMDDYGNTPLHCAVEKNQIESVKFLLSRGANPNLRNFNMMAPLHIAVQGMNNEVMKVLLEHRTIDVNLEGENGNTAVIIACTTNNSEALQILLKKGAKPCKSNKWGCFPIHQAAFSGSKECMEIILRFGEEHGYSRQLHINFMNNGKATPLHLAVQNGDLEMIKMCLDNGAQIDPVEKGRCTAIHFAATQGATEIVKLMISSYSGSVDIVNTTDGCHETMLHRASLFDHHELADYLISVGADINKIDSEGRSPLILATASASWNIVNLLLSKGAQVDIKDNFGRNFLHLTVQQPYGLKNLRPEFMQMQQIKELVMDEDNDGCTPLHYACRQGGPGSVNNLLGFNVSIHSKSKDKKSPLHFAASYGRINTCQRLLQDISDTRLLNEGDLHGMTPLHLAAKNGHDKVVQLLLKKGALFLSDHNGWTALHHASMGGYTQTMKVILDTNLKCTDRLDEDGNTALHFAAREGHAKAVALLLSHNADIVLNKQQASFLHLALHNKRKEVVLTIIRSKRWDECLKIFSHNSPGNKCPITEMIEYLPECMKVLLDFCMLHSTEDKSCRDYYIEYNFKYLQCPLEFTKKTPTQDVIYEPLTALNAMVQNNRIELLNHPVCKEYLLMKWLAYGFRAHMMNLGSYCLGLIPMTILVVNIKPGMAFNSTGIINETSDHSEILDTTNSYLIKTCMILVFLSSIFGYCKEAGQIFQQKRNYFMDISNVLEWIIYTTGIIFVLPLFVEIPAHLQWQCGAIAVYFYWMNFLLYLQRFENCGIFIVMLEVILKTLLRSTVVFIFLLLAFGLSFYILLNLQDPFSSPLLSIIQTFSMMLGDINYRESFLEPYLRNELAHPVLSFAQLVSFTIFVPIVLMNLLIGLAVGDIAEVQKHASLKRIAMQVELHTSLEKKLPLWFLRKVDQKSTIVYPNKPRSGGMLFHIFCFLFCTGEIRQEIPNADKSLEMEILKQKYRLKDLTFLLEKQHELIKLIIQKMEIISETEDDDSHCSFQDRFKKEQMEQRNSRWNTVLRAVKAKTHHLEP

In turn, `Cn1c(=O)c2c(CC(=O)Nc3nc(-c4ccc(Cl)cc4)cs3)cccc2n(C)c1=O` [Example 10] showed a plasma levels in data set [1] (10 mg/kg, CCI model, male SD rats) of 5100 ng/mL. The concentration at 2 h is 2080 ng/mL in data set [1] (rat, plasma, oral, 3 mg/kg, male SD rats, read-out: Plasma levels at 2 h); 7380 ng/mL in data set [1] (rat, plasma, oral, 10 mg/kg, male SD rats, read-out: Plasma levels at 2 h); 2080 to 7380 ng/mL in data set [1] (rat, plasma, oral, 3, 5 and 10 mg/kg, male SD rats, read-out: plasma levels at 2 h post-dose (range over doses)). Moreover, in data set [1] (rat, plasma, oral, 10 mg/kg, FCA model, rats), the concentration at 0.5 h came to 3500 ng/mL. Besides, in data set [2] (1.0 μM test compound, read-out: Percentage inhibition at 1.0 μM), the inhibition (commonly the drop in the measured response relative to a control, in per cent) at 1 µM was determined as 99.7%. Further, in data set [2] (10.0 μM test compound, read-out: Percentage inhibition at 10.0 μM), the inhibition at 10 µM amounted to 99.9%. Further, the IC50 (commonly the midpoint of a concentration-inhibition curve) in data set [2] (read-out: IC50 value (range)) lay in the range of 50.1 to 100 nM. Also, in data set [3], the “inhibition of the early phase nocifensive behaviour” value is listed as 58%. For the same compound, the “inhibition of the late phase nocifensive behaviour” value in data set [3] was 58%. The “maximum efficacy, reversal of CCI-induced hyperalgesia” value in data set [4] (10 mg/kg, acute and chronic administration) is reported as 75%. For the same compound, the 50% effective dose (ED50) (commonly the midpoint of the dose-response relation) worked out at 3.5 mg/kg in data set [4] (Rattus norvegicus, read-out: ED50, CCI-induced neuropathic hyperalgesia); 2.7 mg/kg in data set [5] (Rattus norvegicus, po, doses 1, 3, 6 and 10 mg/kg). Moreover, the “maximum efficacy against FCA-induced mechanical hyperalgesia” value in data set [5] (10 mg/kg, p.o., rats) was 81%.

For the origin of these results see patent US7951814B2, “Quinazolinedione derivatives as TRPA1 modulators” (Glenmark Pharmaceuticals, S.A., priority 2008, dated 2011).
